# pEC50: −log10 of the molar value.
# Test: Induction of rat oligodendrocyte progenitor cells differentiation assessed as myelin basic protein expression level
# Format: functional
row,Structure (SMILES),pEC50
1,CN1c2cc(F)ccc2CC12CCN(CC1CCOCC1)CC2,8.00
2,O=C1c2cc(C(F)(F)F)ccc2NC12CCN(CC1CCOCC1)CC2,8.49
3,FC(F)(F)c1ccc2c(c1)N(CC1CCOCC1)C1(CCN(CC3CCOCC3)CC1)C2,7.89
4,CN1c2ccc(C(F)(F)F)cc2C(=O)C12CCN(CC1CCOCC1)CC2,8.03
5,FC(F)(F)c1ccc2c(c1)CC1(CCN(CC3CCOCC3)CC1)N2,6.62
6,FC(F)(F)c1ccc2c(c1)N(Cc1ccccc1)C1(CCN(CC3CCOCC3)CC1)C2,8.43
7,CC(C)(C)OC(=O)CN1c2cc(C(F)(F)F)ccc2CC12CCN(CC1CCOCC1)CC2,7.82
8,O=C1c2ccc(C(F)(F)F)cc2NC12CCN(CC1CCOCC1)CC2,7.27
9,CN(C)C(=O)CN1c2cc(C(F)(F)F)ccc2CC12CCN(CC1CCOCC1)CC2,6.15
10,CN1c2cc(C(F)(F)F)ccc2C(=O)C12CCN(CC1CCOCC1)CC2,8.85
11,CN1c2cc(Cl)ccc2CC12CCN(CC1CCOCC1)CC2,7.72

# Continued, values first:
row,pEC50,Structure (SMILES)
1,7.27,COC1(CN2CCC3(CC2)Cc2ccc(C(F)(F)F)cc2N3C)CCOCC1
2,8.33,CN1c2cc(C(F)(F)F)ccc2CC12CCN(CC1CCC(F)(F)CC1)CC2
3,8.72,CN1c2cc(C(F)(F)F)ccc2CC12CCN(CC1CCOCC1)CC2
4,5.15,CN1c2ccc(C(F)(F)F)cc2CC12CCN(CC1CCOCC1)CC2
5,7.22,CC(=O)N1c2cc(C(F)(F)F)ccc2CC12CCN(CC1CCOCC1)CC2
6,6.60,COCCN1CCC2(CC1)Cc1ccc(C(F)(F)F)cc1N2C
7,8.24,CN1c2cc(C(F)(F)F)ccc2CC12CCN(CC1(O)CCOCC1)CC2
8,6.62,COCCCN1CCC2(CC1)Cc1ccc(C(F)(F)F)cc1N2C
9,7.13,OCCN1c2cc(C(F)(F)F)ccc2CC12CCN(CC1CCOCC1)CC2
